In PubChem BioAssay AID2060499 (Molecular Pharmacology Branch, DTP, NCI, 2025):

Test system: 777334-354-R2-J4-PDC tumor spheroids with HUVEC/MSC, viability
Test: Anticancer human tumor 777334-354-R2-J4-PDC patient-derived pancreatic adenocarcinoma cell line growth inhibition [GQUAD]
Conditions: for IC50: curve of first compound; for viability, T/C: stronger effect = lower value
Method in brief: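 Multi-cell-type spheroids of tumor cells with HUVEC and mesenchymal stem cells, treated with drug combinations. Concentrations descend in half-log steps from near clinical Cmax, or from 10 microM where Cmax is unknown; viability read-out.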

[1] = second compound 0.0316 µM, first compound 0.0316 µM
[2] = second compound 0.0316 µM, first compound 0.1 µM
[3] = second compound 0.0316 µM, first compound 0.316 µM
[4] = second compound 0.0316 µM, first compound 1 µM
[5] = second compound 0.0316 µM, first compound 3.16 µM
[6] = second compound 0.0316 µM, first compound 10 µM
[7] = second compound 0.1 µM, first compound 0.0316 µM
[8] = second compound 0.1 µM, first compound 0.1 µM
[9] = second compound 0.1 µM, first compound 0.316 µM
[10] = second compound 0.1 µM, first compound 1 µM
[11] = second compound 0.1 µM, first compound 3.16 µM
[12] = second compound 0.1 µM, first compound 10 µM
[13] = second compound 0.316 µM, first compound 0.0316 µM
[14] = second compound 0.316 µM, first compound 0.1 µM
[15] = second compound 0.316 µM, first compound 0.316 µM
[16] = second compound 0.316 µM, first compound 1 µM
[17] = second compound 0.316 µM, first compound 3.16 µM
[18] = second compound 0.316 µM, first compound 10 µM
[19] = second compound 1 µM, first compound 0.0316 µM
[20] = second compound 1 µM, first compound 0.1 µM
[21] = second compound 1 µM, first compound 0.316 µM
[22] = second compound 1 µM, first compound 1 µM
[23] = second compound 1 µM, first compound 3.16 µM
[24] = second compound 1 µM, first compound 10 µM
[25] = second compound 3.16 µM, first compound 0.0316 µM
[26] = second compound 3.16 µM, first compound 0.1 µM
[27] = second compound 3.16 µM, first compound 0.316 µM
[28] = second compound 3.16 µM, first compound 1 µM
[29] = second compound 3.16 µM, first compound 3.16 µM
[30] = second compound 3.16 µM, first compound 10 µM
[31] = second compound 10 µM, first compound 0.0316 µM
[32] = second compound 10 µM, first compound 0.1 µM
[33] = second compound 10 µM, first compound 0.316 µM
[34] = second compound 10 µM, first compound 1 µM
[35] = second compound 10 µM, first compound 3.16 µM
[36] = second compound 10 µM, first compound 10 µM
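Further: spheroids exposed to compounds for 7 days before readout.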

How did the IC50 (second compound 0.0316 µM) turn out when `COc1cc(C2c3cc4c(cc3C(OC3OC5COC(C)OC5C(O)C3O)C3COC(=O)C23)OCO4)cc(OC)c1O` (centres undefined) + CN(C)c1ccc(Nc2c3ccc(NC(=O)CCN4CCCC4)cc3nc3cc(NC(=O)CCN4CCCC4)ccc23)cc1 was run?
Its IC50 is 4.94 µM.

And the IC50 (second compound 0.1 µM)?
Its IC50 is 4.35 µM.

And the IC50 (second compound 0.316 µM)?
Its IC50 is 4.03 µM.

What about the IC50 (second compound 1 µM) of the same molecule?
The IC50 was 2.93 µM.

What about the IC50 (second compound 3.16 µM) of the same molecule?
The IC50 was 4.71 µM.

And the IC50 (second compound 10 µM)?
Its IC50 is 3.61 µM.

What about the viability, T/C [1] of the same molecule?
Its viability, T/C is 98.6%.

And the viability, T/C [2]?
Its viability, T/C is 87.8%.

And the viability, T/C [3]?
Its viability, T/C is 88.9%.

And the viability, T/C [4]?
Its viability, T/C is 70.4%.

And the viability, T/C [5]?
The viability, T/C was 57.8%.

And the viability, T/C [6]?
Its viability, T/C is 38.5%.

And the viability, T/C [7]?
The viability, T/C was 99.6%.

What about the viability, T/C [8] of the same molecule?
Its viability, T/C is 95.2%.

What about the viability, T/C [9] of the same molecule?
Its viability, T/C is 87.5%.

And the viability, T/C [10]?
The viability, T/C was 79%.

And the viability, T/C [11]?
The viability, T/C was 54%.

And the viability, T/C [12]?
The viability, T/C was 36%.

What about the viability, T/C [13] of the same molecule?
The viability, T/C was 93.5%.

What about the viability, T/C [14] of the same molecule?
The viability, T/C was 78.9%.

And the viability, T/C [15]?
Its viability, T/C is 85.5%.

And the viability, T/C [16]?
Its viability, T/C is 70.3%.

And the viability, T/C [17]?
The viability, T/C was 53.6%.

And the viability, T/C [18]?
The viability, T/C was 34.1%.

What about the viability, T/C [19] of the same molecule?
The viability, T/C was 90.5%.

And the viability, T/C [20]?
Its viability, T/C is 82%.

What about the viability, T/C [21] of the same molecule?
The viability, T/C was 87.4%.

What about the viability, T/C [22] of the same molecule?
Its viability, T/C is 74.3%.

And the viability, T/C [23]?
The viability, T/C was 48.5%.

What about the viability, T/C [24] of the same molecule?
Its viability, T/C is 37.4%.

And the viability, T/C [25]?
The viability, T/C was 88%.

And the viability, T/C [26]?
Its viability, T/C is 78.5%.

What about the viability, T/C [27] of the same molecule?
The viability, T/C was 77.8%.

And the viability, T/C [28]?
The viability, T/C was 66.3%.

And the viability, T/C [29]?
Its viability, T/C is 60.4%.

What about the viability, T/C [30] of the same molecule?
Its viability, T/C is 36.6%.

What about the viability, T/C [31] of the same molecule?
The viability, T/C was 79%.

What about the viability, T/C [32] of the same molecule?
The viability, T/C was 84.8%.

What about the viability, T/C [33] of the same molecule?
Its viability, T/C is 75.1%.

And the viability, T/C [34]?
Its viability, T/C is 61%.

What about the viability, T/C [35] of the same molecule?
Its viability, T/C is 55%.

And the viability, T/C [36]?
Its viability, T/C is 33.6%.

Which IC50 (second compound 0.0316 µM) does the source give for `Cc1cccc(N(C)C(=O)C2C(O)CCN2c2nc(C)cc(C(F)(F)F)c2C#N)c1` (centres undefined) + Cc1[nH]c2ccc(F)cc2c1-c1nc2c3cccnc3c3ncccc3c2[nH]1 here?
Its IC50 is > 10 µM.

What about the IC50 (second compound 0.1 µM) of the same molecule?
The IC50 was > 10 µM.

What about the IC50 (second compound 0.316 µM) of the same molecule?
Its IC50 is > 10 µM.

What about the IC50 (second compound 1 µM) of the same molecule?
The IC50 was > 10 µM.

And the IC50 (second compound 3.16 µM)?
The IC50 was < 0.0316 µM.

And the IC50 (second compound 10 µM)?
The IC50 was < 0.0316 µM.

What about the viability, T/C [1] of the same molecule?
Its viability, T/C is 112%.

What about the viability, T/C [2] of the same molecule?
The viability, T/C was 104%.

And the viability, T/C [3]?
The viability, T/C was 95.3%.

And the viability, T/C [4]?
The viability, T/C was 95.5%.

And the viability, T/C [5]?
The viability, T/C was 94.5%.

And the viability, T/C [6]?
Its viability, T/C is 92.9%.

What about the viability, T/C [7] of the same molecule?
The viability, T/C was 97.6%.

What about the viability, T/C [8] of the same molecule?
The viability, T/C was 97%.

What about the viability, T/C [9] of the same molecule?
Its viability, T/C is 92.1%.

And the viability, T/C [10]?
The viability, T/C was 93.4%.

What about the viability, T/C [11] of the same molecule?
Its viability, T/C is 103%.

And the viability, T/C [12]?
Its viability, T/C is 101%.

And the viability, T/C [13]?
The viability, T/C was 95.3%.

And the viability, T/C [14]?
Its viability, T/C is 88.5%.

What about the viability, T/C [15] of the same molecule?
Its viability, T/C is 101%.

What about the viability, T/C [16] of the same molecule?
The viability, T/C was 95.8%.

What about the viability, T/C [17] of the same molecule?
The viability, T/C was 95.8%.

What about the viability, T/C [18] of the same molecule?
The viability, T/C was 91.2%.

And the viability, T/C [19]?
The viability, T/C was 78.8%.

What about the viability, T/C [20] of the same molecule?
The viability, T/C was 85.4%.

And the viability, T/C [21]?
The viability, T/C was 83.3%.

What about the viability, T/C [22] of the same molecule?
The viability, T/C was 71%.

What about the viability, T/C [23] of the same molecule?
The viability, T/C was 90.4%.

And the viability, T/C [24]?
The viability, T/C was 87.2%.

And the viability, T/C [25]?
The viability, T/C was 35.1%.

What about the viability, T/C [26] of the same molecule?
Its viability, T/C is 36.6%.

What about the viability, T/C [27] of the same molecule?
Its viability, T/C is 37.3%.

What about the viability, T/C [28] of the same molecule?
Its viability, T/C is 31.1%.

And the viability, T/C [29]?
The viability, T/C was 33.5%.

And the viability, T/C [30]?
The viability, T/C was 46%.

What about the viability, T/C [31] of the same molecule?
The viability, T/C was 32.4%.

What about the viability, T/C [32] of the same molecule?
Its viability, T/C is 34.5%.

What about the viability, T/C [33] of the same molecule?
Its viability, T/C is 35.7%.

And the viability, T/C [34]?
Its viability, T/C is 30.5%.

And the viability, T/C [35]?
Its viability, T/C is 25.7%.

And the viability, T/C [36]?
The viability, T/C was 38.8%.
